# Measured values reported in US20220119379A1, “IMMUNOMODULATOR” (HITGEN INC., priority 2019, published 2022).
# Like-named read-outs stand apart in the source and are kept apart here.
# Tests used:
# [1] = target: Sting protein (Homo sapiens, UniProt Q86WV6); assay: Binding affinity test of the compound and Sting protein by protein thermal transfer test (TSA); settings: Kd fitted from change of ΔTm with compound concentration
# Description: The protein thermal transfer test (TSA) was used to determine the binding affinity of the compound to Sting protein. The 100 ug/ml Sting protein was mixed with different concentrations of the compound and 5× SYPRO Orange dye in a buffer of 20 mM Hepes, 150 mM NaCl, 1 mM MgCl2, 1 mM DTT, pH=7.5. The protein dissolution curve was measured on a qPCR instrument, the Tm value was fitted with Protein Thermal Shift Software 1.3 software, and the Tm difference of the protein was calculated when different concentrations of compound and no compound were added. The dissociation constant Kd was fitted and obtained according to the change of ΔTm with the concentration of the compound. […] The Kd value of each compound is classified according to the following instructions: […]
# [2] = target: T1, Sting protein (Homo sapiens, UniProt Q86WV6, G230A/H232R/R293Q/R71H); assay: Agonistic function test on Sting protein: IFN-β and CXCL10 (IP10) cytokines produced by THP1 cells (ELISA); type: cell-based; settings: for EC50: 18 hours, ELISA of supernatant; for activity of stimulating IFN-β and CXCL10 (IP10) cytokines produced by THP1 cells (in words): listed compounds compared with the reference compound
# T1 construct: endogenous in cells; host or cells: THP1 cells (Shanghai Cell Bank)
# T1 sequence (Q86WV6 whole entry R71H/G230A/H232R/R293Q): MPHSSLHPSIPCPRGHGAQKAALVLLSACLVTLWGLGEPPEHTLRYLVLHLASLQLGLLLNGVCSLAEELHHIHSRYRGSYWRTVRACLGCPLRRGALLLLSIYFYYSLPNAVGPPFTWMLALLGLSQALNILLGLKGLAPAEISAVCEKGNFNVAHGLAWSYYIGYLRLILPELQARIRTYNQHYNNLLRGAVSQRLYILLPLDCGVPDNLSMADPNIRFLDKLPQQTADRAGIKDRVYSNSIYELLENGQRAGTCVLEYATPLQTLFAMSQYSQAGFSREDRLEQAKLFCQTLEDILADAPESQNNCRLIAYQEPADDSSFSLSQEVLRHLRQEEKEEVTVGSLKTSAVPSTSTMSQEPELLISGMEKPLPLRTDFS
# Description: In this experiment, the function of sting agonist was evaluated by detecting the changes of IFN-β and CXCL10 (IP10) cytokines produced by human peripheral blood mononuclear cell line THP1 cells (Shanghai Cell Bank) stimulated by the compounds. On the first day of the experiment, the ELISA plate was coated according to the IFN-β (R&D, #DY814-05) and IP10 (BD, #550926) ELISA test kit instructions. The compound was dissolved into DMSO stock solution and diluted with culture medium to a 2× working concentration, added to a 96-well plate, 100 μL per well. The THP1 cells in the logarithmic growth phase were taken to count, and were diluted to a concentration of 2*10^6/mL, added to the above-mentioned 96-well plate containing the compounds, with […], per well, mixed well, and incubated in a 37° C., 5% CO2 incubator for 18 hours. On the second day, the above cell culture supernatant was taken, 100 μL per well, and tested according to IFN-β and IP10 ELISA test kits respectively. The OD450 value was read, and converted into IFN-β and IP10 concentration according to the standard curve, and fitted with GraphPad 5.0 to calculate the EC50 value of the dose-efficiency curve.
# [3] = test system: CT26 cells; assay: Tumor inhibitory effect, CT26 tumor re-excitation model; type: in vivo, mice
# Description: The tumor regression of each group of mice in the CT26 anti-tumor efficacy model of the above experimental example 4 was further observed. After 30 days of the last administration, CT26 cells were inoculated subcutaneously on the back. Each mouse was inoculated with 100 μL cell suspension containing 5×10^5 cells; mice that have not been treated with drugs were used as a control group to inoculate CT26 cells in the same way. The tumor was observed and the growth of the tumor was recorded.
# Chain of Sting protein (Homo sapiens, UniProt Q86WV6) (Q86WV6 whole entry H232R, species assumed): as the sequence (Q86WV6 whole entry R71H/G230A/H232R/R293Q) above, with H71R, A230G, Q293R counted along it
Kd [1] [nM],EC50 ([2]; read-out: IFN-β EC50) [nM],EC50 ([2]; read-out: IP10 EC50) [nM],activity of stimulating IFN-β and CXCL10 (IP10) cytokines produced by THP1 cells (in words) [2],SMILES,tumor curve in CT26 tumor re-excitation model (FIG. 2) ([3]; 1.5 mg/kg),tumor curve in CT26 tumor re-excitation model (FIG. 2) ([3]; 4.5 mg/kg),tumor curve in CT26 tumor re-excitation model (FIG. 2) ([3]; 1 mg/kg),tumor curve in CT26 tumor re-excitation model (FIG. 2) ([3]; 3 mg/kg)
1000 to 10000,10 to 100,< 10,comparable or even higher activity,CCc1nc(C)sc1C(=O)Nc1nc2cc(C(N)=O)cc(OCCCN3CCOCC3)c2n1C/C=C/Cn1c(NC(=O)c2c(F)c(C)nn2CC)nc2cc(C(N)=O)cc(SC)c21 [Example 49],,,,
1000 to 10000,10 to 100,10 to 100,comparable or even higher activity,CCc1nc(C)sc1C(=O)Nc1nc2cc(C(N)=O)cc(OCCCN3CCOCC3)c2n1C/C=C/Cn1c(NC(=O)c2sc(C)nc2CC)nc2cc(C(N)=O)cc(SC)c21 [Example 50],,,,
1000 to 10000,10 to 100,< 10,comparable or even higher activity,"CCn1nc(C)cc1C(=O)Nc1nc2cc(C(N)=O)cc(SC)c2n1C/C=C/Cn1c(NC(=O)c2c(F)c(C)nn2CC)nc2cc(C(N)=O)cc(OCCCN3CCOCC3)c21 [Example 51, (E)-1-(4-(5-(5-carbamoyl-2-)(1-styrene-3-methyl-1H-pyrazole-5-formylamino)-7-(methylthio)-1H-benzo[d]imidazol-1-yl)but-2-en-1-yl)-2-(1-styrene-4-fluoro-3-methyl-1H-pyrazole-5-anthralamido)-7-(3-morpholinopropoxy)-1H-benzo[d]imidazole-5-formylamide]",,,,
1000 to 10000,10 to 100,< 10,comparable or even higher activity,CCc1nc(C)sc1C(=O)Nc1nc2cc(C(N)=O)cc(SC)c2n1C/C=C/Cn1c(NC(=O)c2c(F)c(C)nn2CC)nc2cc(C(N)=O)cc(OCCCN3CCOCC3)c21 [Example 52],,,,
1000 to 10000,10 to 100,< 10,comparable or even higher activity,"CCn1nc(C)c(F)c1C(=O)Nc1nc2cc(C(N)=O)cc(OCCCN3CCOCC3)c2n1C/C=C/Cn1c(NC(=O)c2c(F)c(C)nn2CC)nc2cc(C(N)=O)cc(SC)c21 [Example 53, (E)-1-(4-(5-carbamoyl-2-(1-ethyl-4-fluoro-3-methyl-1H-pyrazole-5-carboxamino)-7-(3-morpholinopropoxy)-1H-benzo[d]imidazol-1-yl)but-2-en-1-yl)-2-(1-ethyl-4-fluoro-3-methyl-1H-pyrazole-5-formylamino)-7-(methylthio)-1H-benzo[d]imidazole-5-carboxamide]",,,,

# Further lines, the compound ahead of its results:
SMILES,Kd [1] [nM],EC50 ([2]; read-out: IFN-β EC50) [nM],EC50 ([2]; read-out: IP10 EC50) [nM],activity of stimulating IFN-β and CXCL10 (IP10) cytokines produced by THP1 cells (in words) [2],tumor curve in CT26 tumor re-excitation model (FIG. 2) ([3]; 1.5 mg/kg),tumor curve in CT26 tumor re-excitation model (FIG. 2) ([3]; 4.5 mg/kg),tumor curve in CT26 tumor re-excitation model (FIG. 2) ([3]; 1 mg/kg),tumor curve in CT26 tumor re-excitation model (FIG. 2) ([3]; 3 mg/kg)
"CCc1nc(C)sc1C(=O)Nc1nc2cc(C(N)=O)cc(OC)c2n1C/C=C/Cn1c(NC(=O)c2cc(C)nn2CC)nc2cc(C(N)=O)cc(OCCCN3CCOCC3)c21 [Example 2, (E)-N-(5-carbamoyl-1-(4-(5-carbamoyl-2-(1-ethyl-3-methyl-1H-pyrazole-5-formylamino)-7-(3-morpholino)-1H-benzo[d]imidazol-1-yl)but-2-en-1-yl)-7-methoxy-1H-benzo[d]imidazol-2-yl)-4-ethyl-2-methylthiazole-5-formamide]",1000 to 10000,10 to 100,10 to 100,comparable or even higher activity,overlap,overlap,,
CCc1nc(C)sc1C(=O)Nc1nc2cc(C(N)=O)cc(SC)c2n1C/C=C/Cn1c(NC(=O)c2cc(C)nn2CC)nc2cc(C(N)=O)cc(OCCCN3CCOCC3)c21 [Example 5],1000 to 10000,10 to 100,< 10,comparable or even higher activity,overlap,,,
CCc1nc(C)sc1C(=O)Nc1nc2cc(C(N)=O)cc(OC)c2n1C/C=C/Cn1c(NC(=O)c2cc(C)nn2CC)nc2cc(C(N)=O)cc(OCCCN3CCN(C4CC4)CC3)c21 [Example 15],1000 to 10000,10 to 100,10 to 100,comparable or even higher activity,,,overlap,overlap
CCc1nc(C)sc1C(=O)Nc1nc2cc(C(N)=O)cc(OCCCN3CCN(CC)CC3)c2n1C/C=C/Cn1c(NC(=O)c2cc(C)nn2CC)nc2cc(C(N)=O)cc(SC)c21 [Example 17],1000 to 10000,100 to 1000,10 to 100,,overlap,,,
CCc1nc(C)sc1C(=O)Nc1nc2cc(C(N)=O)cc(OC)c2n1C/C=C/Cn1c(NC(=O)c2cc(C)nn2CC)nc2cc(C(N)=O)cc(OCCCN3CCN(C(C)=O)CC3)c21 [Example 29],1000 to 10000,100 to 1000,10 to 100,,,,overlap,
CCc1nc(C)sc1C(=O)Nc1nc2cc(C(N)=O)cc(OCCCN3CCOCC3)c2n1C/C=C/Cn1c(NC(=O)c2c(F)c(C)nn2CC)nc2cc(C(N)=O)cc(OC)c21 [Example 47],1000 to 10000,> 1000,10 to 100,,,,,
CCc1nc(C)sc1C(=O)Nc1nc2cc(C(N)=O)cc(OC)c2n1C/C=C/Cn1c(NC(=O)c2c(F)c(C)nn2CC)nc2cc(C(N)=O)cc(OCCCN3CCOCC3)c21 [Example 48],1000 to 10000,100 to 1000,10 to 100,,,,,
